One test relates to MCF-7 cell line. Description: Insulin driven proliferation assay. Format: cell-based, human.
The subject of test [1] is MCF-7 xenograft. Description: Orthotopic MCF-7 xenograft model in NSG mice. To be noted: for anti-tumor effect in words: LSZ102 20 mg/kg QD, tamoxifen 60 mg/kg, fulvestrant 5 mg/mouse. Format: in vivo.
Description: Mice were supplemented with estradiol (0.72 mg estradiol/90-day release pellets) to further support MCF-7 tumor growth several days prior to cell implantation. MCF-7 tumors were established in female NSG mice by injection of 10×10^6 cells in 50% Matrigel® into the axillary mammary fat pad area of each mouse. When tumors reached an average of 200 mm^3, mice were randomized according to tumor volume into treatment groups (n=8).
A further test has as its system HBRX1298 xenograft. Description: ER+ primary breast cancer model HBRX1298 in NSG mice. The note with it: 5 mg/mouse SC QWeek, Day 63. Format: in vivo.
Test [2] concerns MCF-7 xenograft. Put plainly: Dose fractionation study in mice with MCF-7 xenografts. The note with it: 5 mg/mouse SC QWeek, Day 61. It counts as in vivo.
A further test deals with T1, ERα (Homo sapiens, UniProt P03372).
T1 sequence (P03372 1-595): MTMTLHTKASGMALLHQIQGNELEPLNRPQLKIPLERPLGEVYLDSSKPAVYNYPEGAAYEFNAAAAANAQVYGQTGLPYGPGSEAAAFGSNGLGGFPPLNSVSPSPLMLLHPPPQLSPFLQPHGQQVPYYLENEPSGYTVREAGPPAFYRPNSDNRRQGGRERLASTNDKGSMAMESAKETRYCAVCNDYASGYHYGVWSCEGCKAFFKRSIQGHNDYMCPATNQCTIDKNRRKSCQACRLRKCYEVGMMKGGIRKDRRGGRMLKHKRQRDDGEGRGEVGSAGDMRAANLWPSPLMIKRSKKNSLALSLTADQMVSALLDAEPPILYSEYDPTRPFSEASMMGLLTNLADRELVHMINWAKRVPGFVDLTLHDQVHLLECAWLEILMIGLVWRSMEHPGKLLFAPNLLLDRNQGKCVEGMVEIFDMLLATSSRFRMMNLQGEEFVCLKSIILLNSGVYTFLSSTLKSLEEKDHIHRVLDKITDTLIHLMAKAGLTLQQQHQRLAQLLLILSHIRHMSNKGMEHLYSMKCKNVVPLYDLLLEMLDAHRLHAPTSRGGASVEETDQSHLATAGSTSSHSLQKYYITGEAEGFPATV
Description: Immunoblot ERα protein quantification, MCF-7 parental cells. The note with it: 24 hr.

Marks after values point to notes of the source that are not given here.

Description for HBRX1298 xenograft: HBRX1298 tumors were established in NSG female mice by injection of a tumor brei into the inguinal mammary fat pad area. Mice were implanted with 0.72 mg estradiol/90-day release pellets several days prior to cell implantation. When tumors reached approximately 250 mm3, mice were randomized according to tumor volume into treatment groups (n=6 for all, except n=4 for estradiol withdrawal) on Day 38.

In the case of `C[C@]12CC[C@@H]3c4ccc(O)cc4C[C@@H](CCCCCCCCC[S+]([O-])CCCC(F)(F)C(F)(F)F)[C@H]3[C@@H]1CC[C@@H]2O` (some centres unmarked) [Fulvestrant], in the test on MCF-7 cell line, the “effect in insulin driven proliferation assay” value is “inhibited”. In addition, the “ΔT/ΔC (%)” value is recorded as 24* % in the test on MCF-7 xenograft [1] (5 mg/mouse SC QWeek, Day 48); 48* % with HBRX1298 xenograft; 18* % in the test with MCF-7 xenograft [2]. In addition, the “anti-tumor effect in words” value in the test with MCF-7 xenograft [1] is on record as “suppression of growth”. Further, the ER protein levels result at ERα is “significantly reduce ER protein levels”.

Take `CC/C(=C(\c1ccccc1)c1ccc(OCCN(C)C)cc1)c1ccccc1` [Tamoxifen]: the “effect in insulin driven proliferation assay” value in the test with MCF-7 cell line was “unaffected”. Also, the “anti-tumor effect in words” value in the test with MCF-7 xenograft [1] was “tumor stasis”.

Source of the values: patent publication US20220031657A1 (NOVARTIS AG, priority 2017, published 2022).
